“Also recorded” adds a separate entry of the source.
Key:
[1] = test system: SH-SY5Y cells; assay: Cellular uptake of fluorescent corrole, fluorescence microscopy, SH-SY5Y cells; format: cell-based, human; settings: 20 μM, half an hour at 37° C.
Text: (§1) For testing cellular membrane penetration, as well as uptake and accumulation of corroles in the cells, we took advantage of the fluorescence property of an appropriate corrole. For this purpose we used a fluorescent corrole complex (1C-Ga) that is structurally identical to the catalytic compounds utilized in the cytoprotection/cytorescue experiments, except that the chelated metal is gallium(III) rather than iron(III) in 1C-Fe or manganese(III) in 1C-Mn. The results are shown in FIGS. 21A-D for RIN-m (insulinoma) cell line and FIGS. 22A-D for SH-SY5Y (neuroblastoma) cell line.
(§2) To visualize intracellular corrole we used fluorescence microscopy. Neuroblastoma SH-SY5Y cells and insulinoma RIN-m cells were plated on coverslips. At 24 h after plating, corrole 1C-Ga was added directly to the cell media and incubated for half an hour at 37° C. The cells were then aspirated from the media and washed with phosphate buffer to eliminate background signal due to extra cellular corrole. Fixation with formaldehyde was performed. Coverslips with mounting medium (with DAPI) were directly placed on slides and viewed by fluorescence microscopy; the results are shown in FIGS. 21, 22.

[2] = test system: RIN-m cells; assay: Cellular uptake of fluorescent corrole, fluorescence microscopy, RIN-m cells; format: cell-based; settings: 20 μM, half an hour at 37° C.
Text: as §1, §2

[3] = In-vivo fluorescence imaging of corrole in nude mice (IVIS 200); settings: 19 mg/kg i.p., 30 min after injection
Procedure: For obtaining information about in-vivo localization and distribution of the various corroles that have sulfonic acid head groups, in-vivo imaging of corroles in whole animals was performed. Of particular interest was to examine whether the leading corrole compounds unlike most porphyrins are able to cross the blood brain barrier (BBB).
The in vivo imaging experiments were performed as follows. Nude mice received i.p. injections of the fluorescent gallium(III) corrole 1C-Ga and were examined by IVIS 200 imaging system [Xenogen].

cellular uptake and accumulation [1]: accumulation inside the cells
cellular uptake and accumulation [2]: accumulation inside the cells
Substance: 2,17-bis(sulfonato)-5,10,15-tris(pentafluorophenyl)-corrolato galium(III) [1C-Ga]
BBB penetration / accumulation in brain area [3]: possible BBB penetration and accumulation of the corrole complex in brain area; also recorded: indicative of the crossing of the blood brain barrier (BBB)

From patent US20140045809A1, “CORROLES FOR NEUROPROTECTION AND NEURORESCUE” (priority 2008, published 2014)
